What all share (assay type): biochemical
In assay [1] the target is T1, catalytic domain of human collagenase-1 (MMP-1) (Homo sapiens, UniProt P03956).
T1 construct: Determination of the Enzymatic Activity of the Catalytic Domain of Human Collagenase-1 (MMP-1); purchased Biocol, Potsdam MMP1
T1 sequence (P03956 100-269 limits assumed): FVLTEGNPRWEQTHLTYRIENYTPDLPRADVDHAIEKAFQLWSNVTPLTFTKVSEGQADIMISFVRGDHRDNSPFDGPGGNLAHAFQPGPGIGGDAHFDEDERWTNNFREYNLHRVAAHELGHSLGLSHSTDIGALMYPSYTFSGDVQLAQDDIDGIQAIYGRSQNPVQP
As to the kind of experiment: Enzymatic activity of the catalytic domain of human collagenase-1 (MMP-1), fluorogenic substrate. The protocol:
Determination of the Enzymatic Activity of the Catalytic Domain of Human Collagenase-1 (MMP-1)
Activation of the Pro enzyme: 2 parts by volume of Pro enzyme are incubated with 1 part by volume of APMA solution at 37° C. for 1 hour. The APMA solution is prepared from a 10 mmol/l p-aminophenylmercuric acetate solution in 0.1 mmol/l NaOH by dilution with 3 parts by volume of tris/HCl buffer pH7.5 (see below). The pH is adjusted to between 7.0 and 7.5 by adding 1 mmol/l HCl. After activation of the enzyme, it is diluted with the tris/HCl buffer to a concentration of 2.5 μg/ml.
The enzymic activity is measured by incubating 10 μl of enzyme solution with 10 μl of a 3% strength (v/v) buffered dimethyl sulfoxide solution (reaction 1) for 15 minutes. The enzyme inhibitor activity is measured by incubating 10 μl of enzyme solution with 10 μl of a 3% strength (v/v) buffered dimethyl sulfoxide solution which contains the enzyme inhibitor (reaction 2).
The enzymic reaction both in the case of reaction 1 and in the case of reaction 2 is followed after addition of 10 μl of a 3% strength (v/v) aqueous dimethyl sulfoxide solution which contains 0.3 mmol/l of the substrate by fluorescence spectroscopy (328 nm (extinction)/393 nm (emission)), and the enzymic activity is presented as increase in extinction per minute.
The effect of the inhibitor is calculated as percentage inhibition by the following formula: % inhibition=100−[(increase in extinction/minute in reaction 2)/increase in extinction/minute in reaction 1)×100].
The IC50, i.e. the inhibitor concentration necessary for 50% inhibition of the enzymic activity, is determined graphically by plotting the percentage inhibitions at various inhibitor concentrations.
The buffer solution contains 0.05% Brij (Sigma, Deisenhofen, Germany) and 0.1 mol/l tris/HCl, 0.1 mol/l NaCl, 0.01 mol/l CaCl2 (pH=7.5).
The enzyme solution contains 2.5 μg/ml of the enzyme domain.
The substrate solution contains 0.3 mmol/l of the fluorogenic substrate (7-methoxycoumarin-4-yl)acetyl-Pro-Leu-Gly-Leu-3-(2′,4′-dinitrophenyl)-L-2,3-diaminopropionyl-Ala-Arg-NH2 (Bachem, Heidelberg, Germany).

The target of assay [2] is T2, neutrophil collagenase (MMP-8) (Homo sapiens, UniProt P22894).
T2 construct: Catalytic Domain of Human Stromelysin (MMP-3) and of Neutrophil Collagenase (MMP-8); made in house
The assay can be described thus: Enzymatic activity of the catalytic domain of neutrophil collagenase (MMP-8), fluorogenic substrate. The protocol:
Preparation and Determination of the Enzymatic Activity of the Catalytic Domain of Human Stromelysin (MMP-3) and of Neutrophil Collagenase (MMP-8)
The two enzymes stromelysin (MMP-3) and neutrophil collagenase (MMP-8) were prepared by the method of Ye et al. (Biochemistry; 31 (1992) pages 11 231-11 235). The enzymic activity or the effect of the enzyme inhibitor was measured by incubating 10 μl of enzyme solution with 10 μl of a 3% strength (v/v) buffered dimethyl sulfoxide solution which contained the enzyme inhibitor where appropriate, for 15 minutes. After addition of 10 μl of a 3% strength (v/v) aqueous dimethyl sulfoxide solution which contained 1 mmol/l of the substrate, the enzymic reaction was followed by fluorescence spectroscopy (328 nm (ex)/393 nm(em)). The enzymic activity is presented as increase in extinction/minute.
The IC50 values listed in Table 4 were determined as the inhibitor concentrations leading in each case to 50% inhibition of the enzyme. The buffer solution contained 0.05% Brij (Sigma, Deisenhofen, Germany) and 0.1 mol/l Tris/HCl, 0.1 mol/l NaCl, 0.01 mol/l CaCl2 and 0.1 mol/l piperazine-N,N′-bis[2-ethanesulfonic acid] (pH=7.5).
The MMP-3 enzyme solution contained 2.3 μg/ml and the MMP-8 enzyme solution 0.6 μg/ml of one of the enzyme domains prepared by the method of Ye et al. The substrate solution contained 1 mmol/l of the fluorogenic substrate (7-methoxycoumarin-4-yl)acetyl-Pro-Leu-Gly-Leu-3-(2′,4′-dinitrophenyl)-L-2,3-diaminopropionyl-Ala-Arg-NH2 (Bachem, Heidelberg, Germany).

For assay [3], the target named is T3, catalytic domain of human gelatinase-A (MMP-9) (Homo sapiens, UniProt P14780).
T3 construct: Determination of the Enzymatic Activity of the Catalytic Domain of Human Gelatinase-A (MMP-9); purchased Roche, Mannheim
As to the kind of experiment: Enzymatic activity of the catalytic domain of human gelatinase (MMP-9), fluorogenic substrate. Conditions: for MMP9:MMP1, selectivity of inhibition of MMP-9 in relation to MMP-1: ratio of the IC50 values of Table 4. As for the experimental part: Determination of the Enzymatic Activity of the Catalytic Domain of Human Gelatinase-A (MMP-9)
Activation of the proenzyme:
2 parts by volume of proenzyme were incubated with 1 part by volume of APMA solution at 37° C. for 4 hours. The APMA solution was prepared from a 10 mmol/l p-aminophenylmercuric acetate solution in 0.1 mmol/l NaOH by dilution with 3 parts by volume of Tris/HCl buffer pH 7.5 (see below). The pH was adjusted to between 7.0 and 7.5 by adding 1 mmol/l HCl. After activation of the enzyme it was diluted with the Tris/HCl buffer to a concentration of 4.2 mU/ml.
The enzymic activity was measured by incubating 10 μl of enzyme solution with 10 μl of a 3% strength (v/v) buffered dimethyl sulfoxide solution (reaction 1) for 15 minutes. The enzyme inhibitor activity was measured by incubating 10 μl of enzyme solution with 10 μl of a 3% strength (v/v) buffered dimethyl sulfoxide solution which contained the enzyme inhibitor (reaction 2).
The enzymic reaction both in the case of reaction 1 and in the case of reaction 2 was followed after addition of 10 μl of a 3% strength (v/v) aqueous dimethyl sulfoxide solution which contained 0.15 mmol/l of the substrate by fluorescence spectroscopy (328 nm (extinction)/393 nm (emission)).
The enzymic activity has been presented as increase in extinction/minute.
The effect of the inhibitor was calculated as percentage inhibition by the following formula: % inhibition=100−[(increase in extinction/minute in reaction 2)/(increase in extinction/minute in reaction 1)×100].
The IC50, which is the concentration of inhibitor which is necessary for 50% inhibition of the enzymic activity, was determined graphically by plotting the percentage inhibitions at various inhibitor concentrations.
The buffer solution contained 0.05% Brij (Sigma, Deisenhofen, Germany) and 0.1 mol/l Tris/HCl, 0.1 mol/l NaCl, 0.01 mol/l CaCl2 (pH=7.5). The enzyme solution contained 4.2 mU/ml of the enzyme domain. The substrate solution contained 0.15 mmol/l of the fluorogenic substrate (7-methoxycoumarin-4-yl)acetyl-Pro-Leu-Gly-Leu-3-(2′,4′-dinitrophenyl)-L-2,3-diaminopropionyl-Ala-Arg-NH2 (Bachem, Heidelberg, Germany).

The source of these data is patent publication US20070203118A1, “SUBSTITUTED TETRAHYDROISOQUINOLINES USED IN THE FORM OF MMP INHIBITORS, METHOD FOR THE PRODUCTION AND USE THEREOF IN THE FORM OF DRUGS” (SANOFI-AVENTIS DEUTSCHLAND GMBH, priority 2004, published 2007).

T2 sequence (P22894 100-262 limits assumed): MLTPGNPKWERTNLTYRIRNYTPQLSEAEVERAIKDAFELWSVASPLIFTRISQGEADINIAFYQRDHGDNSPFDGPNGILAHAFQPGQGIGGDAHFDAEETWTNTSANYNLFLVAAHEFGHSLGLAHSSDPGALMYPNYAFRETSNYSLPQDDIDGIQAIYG
T3 sequence (P14780 107-707 limits assumed): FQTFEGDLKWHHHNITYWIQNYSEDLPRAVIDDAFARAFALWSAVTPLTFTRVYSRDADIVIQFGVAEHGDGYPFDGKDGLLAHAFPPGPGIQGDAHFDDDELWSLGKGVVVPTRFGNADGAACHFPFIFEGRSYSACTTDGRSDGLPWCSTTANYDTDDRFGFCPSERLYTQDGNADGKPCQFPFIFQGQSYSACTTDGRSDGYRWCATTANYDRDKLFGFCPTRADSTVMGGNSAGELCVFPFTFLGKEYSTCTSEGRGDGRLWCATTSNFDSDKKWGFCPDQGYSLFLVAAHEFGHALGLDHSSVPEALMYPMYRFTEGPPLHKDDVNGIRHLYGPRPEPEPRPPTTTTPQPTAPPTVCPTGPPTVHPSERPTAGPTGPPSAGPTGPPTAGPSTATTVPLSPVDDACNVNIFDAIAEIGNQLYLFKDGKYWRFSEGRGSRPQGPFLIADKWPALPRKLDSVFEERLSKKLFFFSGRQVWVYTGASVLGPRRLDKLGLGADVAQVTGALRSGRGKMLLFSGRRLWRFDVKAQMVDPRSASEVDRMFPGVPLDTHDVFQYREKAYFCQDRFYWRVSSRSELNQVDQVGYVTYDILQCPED

Turning to `O=C(NO)[C@H]1c2ccccc2CCN1S(=O)(=O)c1ccc(Oc2ccncc2)cc1` [Compound 11], the IC50 stood at 500 nM in assay [1], 3 nM in assay [2] and 1.8 nM in assay [3]. Besides, the “MMP9:MMP1, selectivity of inhibition of MMP-9 in relation to MMP-1” value in assay [3] turned out to be 78.
With `O=C(NO)[C@H]1c2ccccc2CCN1S(=O)(=O)c1ccc(Oc2ccc(OC(F)(F)F)cc2)nc1` [Compound 43, (R)-2-[6-(4-trifluoromethoxyphenoxy)pyridine-3-sulfonyl]-1,2,3,4-tetrahydro-isoquinoline-1-hydroxycarboxamide], the values for the half-maximal inhibitory concentration (IC50) in assay [1], in assay [2] and in assay [3] were > 10000 nM, 30 nM and 20 nM, respectively. For the same compound, the “MMP9:MMP1, selectivity of inhibition of MMP-9 in relation to MMP-1” value in assay [3] is given as >500.
In the case of `O=C(NO)[C@H]1c2ccccc2CCN1S(=O)(=O)c1ccc(Oc2ccc(Cl)cc2)cc1` [Compound 9], the IC50 turned out to be 42 nM in assay [1], 2.2 nM in assay [2] and 1 nM in assay [3]. Further, in assay [3], the “MMP9:MMP1, selectivity of inhibition of MMP-9 in relation to MMP-1” value was found to be 2.
The like results for `O=C(NO)[C@H]1c2ccccc2CCN1S(=O)(=O)c1ccc(Oc2ccc(OCC(F)(F)F)cc2)cc1` [Compound 22] were, in that order, 1600 nM, 110 nM, 18 nM and 89.
The like results for `O=C(NO)[C@H]1c2ccccc2CCN1S(=O)(=O)c1ccc(Oc2ccc(C(F)(F)F)cc2)cc1` [Compound 21, (R)-2-[4-(4-trifluoromethylphenoxy)benzenesulfonyl]-1,2,3,4-tetrahydro-isoquinoline-1-hydroxycarboxamide] were, in that order, 1000 nM, 3.2 nM, 3.2 nM and 313.
The like results for `COc1cc2c(cc1OC)[C@@H](C(=O)NO)N(S(=O)(=O)c1ccc(-c3ccc(Cl)cc3)cc1)CC2` [Compound 15] were, in that order, 300 nM, 2 nM, 1 nM and 300.
On to “(R)-4-(1-hydroxycarbamoyl-3,4-dihydro-1H-isoquinoline-2-sulfonyl)phenyl benzoate [Compound 48]”, for which the figures for the IC50 in assay [1], in assay [2] and in assay [3] were 89 nM, 4 nM and 2 nM, respectively.
As for `COc1ccc(F)c2c1[C@H](C(=O)NO)N(S(=O)(=O)c1ccc(-c3ccc(Cl)cc3)cc1)CC2` [Compound 18], the results for the IC50 in assay [1], in assay [2] and in assay [3] were 4000 nM, 14 nM and 60 nM, respectively. Moreover, the “MMP9:MMP1, selectivity of inhibition of MMP-9 in relation to MMP-1” value in assay [3] was found to be 67.
On to “2-{2-[4-(4-fluorophenoxy)phenyl]ethanesulfonyl}-1,2,3,4-tetrahydroisoquinoline-1-hydroxycarboxamide [Compound 20]”, for which the IC50 was 300 nM in assay [1], 2.2 nM in assay [2] and 1.3 nM in assay [3]. Further, in assay [3], the “MMP9:MMP1, selectivity of inhibition of MMP-9 in relation to MMP-1” value was 231.
The like results for `O=C(NO)[C@H]1c2ccccc2CCN1S(=O)(=O)c1ccc(Oc2ccc(Cl)cc2)nc1` [Compound 45, (R)-2-[6-(4-chlorophenoxy)pyridine-3-sulfonyl]-1,2,3,4-tetrahydroisoquinoline-1-hydroxycarboxamide] were, in that order, 2000 nM, 9 nM, 3 nM and 667.
